Columns and labels:
[1] = molar heat capacity at constant pressure; details: 101.33 kPa, Liquid
[2] = for mass density / viscosity / thermal conductivity: 101.33 kPa; for mass density / viscosity / thermal conductivity / vapor or sublimation pressure: Liquid; for thermal conductivity: Hot wire method; for surface tension liquid-gas: Maximal bubble pressure

C[Si]1(C)O[Si](C)(C)O[Si](C)(C)O1 [hexamethylcyclotrisiloxane]
Details	mass density [kg/m3]	molar heat capacity at constant pressure [J/K/mol]	surface tension liquid-gas [mN/m]	thermal conductivity [W/m/K]	vapor or sublimation pressure [kPa]	viscosity [mPa·s]
[1], 339.9 K	–	404.5	–	–	–	–
[1], 343.15 K	–	405.9	–	–	–	–
[1], 345.03 K	–	406.7	–	–	–	–
[1], 353.15 K	–	410.4	–	–	–	–
[1], 357.92 K	–	412.3	–	–	–	–
[1], 361.2 K	–	413.8	–	–	–	–
[1], 365.09 K	–	415.6	–	–	–	–
[1], 370.16 K	–	418.1	–	–	–	–
[1], 374.79 K	–	420.1	–	–	–	–
[1], 379.42 K	–	421.8	–	–	–	–
[1], 383.15 K	–	423.6	–	–	–	–
[1], 388.06 K	–	425.6	–	–	–	–
[1], 393.14 K	–	428.1	–	–	–	–
[1], 398.01 K	–	430	–	–	–	–
[1], 400 K	–	431	–	–	–	–
[1], 404.89 K	–	433.2	–	–	–	–
[2], 343.15 K	872.69	–	–	0.1026	–	0.48
[2], 344.55 K	–	–	13.54	–	–	–
[2], 347.35 K	–	–	13.32	–	–	–
[2], 347.64 K	–	–	–	–	13.85	–
[2], 348.15 K	–	–	–	–	–	0.46
[2], 348.7 K	865.41	–	–	–	–	–
[2], 350.13 K	–	–	–	–	15.28	–
[2], 351.45 K	–	–	–	–	16.19	–
[2], 353.15 K	–	–	–	–	–	0.44
[2], 353.95 K	–	–	12.9	–	–	–
[2], 354.65 K	856.98	–	–	–	–	–
[2], 355.59 K	–	–	–	–	19.01	–
[2], 357.4 K	854.11	–	–	–	–	–
[2], 358.15 K	–	–	–	–	–	0.42
[2], 358.45 K	–	–	12.68	–	–	–
[2], 359.15 K	852.6	–	–	–	–	–
[2], 360.17 K	–	–	–	–	22.55	–
[2], 361.61 K	–	–	–	–	23.75	–
[2], 362.4 K	–	–	–	–	24.47	–
[2], 363.15 K	–	–	12.33	–	–	0.4
[2], 365.71 K	–	–	–	–	27.62	–
[2], 366.1 K	842.76	–	–	–	–	–
[2], 368.15 K	–	–	12.02	–	–	0.39
[2], 368.81 K	–	–	–	–	30.71	–
[2], 369.65 K	838	–	–	–	–	–
[2], 372.34 K	–	–	–	–	34.63	–
[2], 372.68 K	–	–	–	–	35.01	–
[2], 373.15 K	833.47	–	11.71	–	–	0.37
[2], 378.15 K	–	–	11.4	–	–	0.35
[2], 379.16 K	825.64	–	–	–	–	–
[2], 381.37 K	–	–	–	–	46.63	–
[2], 383.15 K	820.39	–	11.09	–	–	0.34
[2], 383.78 K	–	–	–	–	50.31	–
[2], 387.85 K	814.16	–	–	–	–	–
[2], 387.95 K	–	–	–	–	57.22	–
[2], 388.15 K	–	–	–	–	–	0.33
[2], 393.15 K	–	–	–	–	–	0.32
[2], 397.75 K	–	–	–	–	76.52	–
[2], 407.63 K	–	–	–	–	100.85	–

C[Si]1(C)O[Si](C)(C)O[Si](C)(C)O[Si](C)(C)O1 [octamethylcyclotetrasiloxane]
Details	mass density [kg/m3]	molar heat capacity at constant pressure [J/K/mol]	surface tension liquid-gas [mN/m]	thermal conductivity [W/m/K]	vapor or sublimation pressure [kPa]	viscosity [mPa·s]
[1], 293.15 K	–	511.5	–	–	–	–
[1], 298 K	–	513.6	–	–	–	–
[1], 303.15 K	–	515.8	–	–	–	–
[1], 306.25 K	–	517.2	–	–	–	–
[1], 313.12 K	–	520.1	–	–	–	–
[1], 319 K	–	522.7	–	–	–	–
[1], 323.25 K	–	524.5	–	–	–	–
[1], 327.55 K	–	526.4	–	–	–	–
[1], 334.75 K	–	529.1	–	–	–	–
[1], 337.88 K	–	530.8	–	–	–	–
[1], 342.23 K	–	532.7	–	–	–	–
[1], 348.05 K	–	535.2	–	–	–	–
[1], 352.2 K	–	538.8	–	–	–	–
[1], 358.83 K	–	539.9	–	–	–	–
[1], 364.28 K	–	542.2	–	–	–	–
[1], 370.25 K	–	543	–	–	–	–
[1], 377.55 K	–	548	–	–	–	–
[1], 382.48 K	–	550.1	–	–	–	–
[1], 388.65 K	–	552.3	–	–	–	–
[1], 393.15 K	–	554.7	–	–	–	–
[1], 399.83 K	–	557.7	–	–	–	–
[1], 407.15 K	–	560.8	–	–	–	–
[1], 415.73 K	–	564.5	–	–	–	–
[1], 425.95 K	–	568.4	–	–	–	–
[2], 292 K	957.55	–	–	–	–	–
[2], 293.15 K	–	–	17.93	–	–	2.45
[2], 298.15 K	–	–	–	0.1131	–	–
[2], 301.6 K	946.16	–	–	–	–	–
[2], 303.15 K	944.21	–	17.28	–	–	2.06
[2], 311.2 K	934.8	–	–	–	–	–
[2], 311.8 K	–	–	–	–	0.355	–
[2], 313.15 K	932.43	–	16.6	–	–	1.7
[2], 316 K	929.12	–	–	–	–	–
[2], 317.63 K	–	–	–	–	0.535	–
[2], 318.25 K	–	–	–	–	0.548	–
[2], 323.15 K	–	–	15.95	–	–	1.44
[2], 325.62 K	917.74	–	–	–	–	–
[2], 328.59 K	–	–	–	–	0.988	–
[2], 328.78 K	–	–	–	–	0.996	–
[2], 330.47 K	912.06	–	–	–	–	–
[2], 332.94 K	–	–	–	–	1.295	–
[2], 333.15 K	909.32	–	15.16	–	–	1.23
[2], 336.67 K	–	–	–	–	1.642	–
[2], 339.58 K	–	–	–	–	1.926	–
[2], 340.05 K	900.68	–	–	–	–	–
[2], 343.15 K	–	–	14.5	0.1038	–	1.06
[2], 343.99 K	–	–	–	–	2.426	–
[2], 344.8 K	894.99	–	–	–	–	–
[2], 349.65 K	889.31	–	–	–	–	–
[2], 349.86 K	–	–	–	–	3.277	–
[2], 353.15 K	884.79	–	13.77	–	–	0.92
[2], 360.26 K	–	–	–	–	5.47	–
[2], 363.15 K	–	–	13.05	–	–	0.81
[2], 364.04 K	872.24	–	–	–	–	–
[2], 373.15 K	861.35	–	12.38	–	–	0.71
[2], 376.51 K	–	–	–	–	10.96	–
[2], 379.31 K	–	–	–	–	12.23	–
[2], 381.23 K	–	–	–	–	13.17	–
[2], 383.15 K	–	–	–	–	–	0.63
[2], 383.17 K	–	–	–	–	14.24	–
[2], 383.2 K	849.47	–	–	–	–	–
[2], 383.58 K	–	–	–	–	14.44	–
[2], 388.92 K	–	–	–	–	17.67	–
[2], 389.73 K	–	–	–	–	18.2	–
[2], 390.88 K	–	–	–	–	18.9	–
[2], 393.15 K	837.64	–	10.98	–	–	0.56
[2], 396.28 K	–	–	–	–	22.95	–
[2], 397.6 K	832.37	–	–	–	–	–
[2], 403.15 K	–	–	–	–	–	0.51
[2], 407.22 K	821	–	–	–	–	–
[2], 407.56 K	–	–	–	–	33.46	–
[2], 413.15 K	813.94	–	9.58	–	–	–
[2], 413.82 K	–	–	–	–	40.8	–
[2], 421.58 K	803.91	–	–	–	–	–
[2], 423.15 K	–	–	–	–	–	0.41
[2], 423.24 K	–	–	–	–	54.11	–
[2], 433.15 K	790.24	–	8.18	–	–	–
[2], 446.26 K	–	–	–	–	100.82	–
